Laboratory results taken from patent publication US20240025862A1, “SUBSTITUTED N-PHENYLURACILS AND SALTS THEREOF, AND USE THEREOF AS HERBICIDAL ACTIVE SUBSTANCES” (Bayer Aktiengesellschaft, priority 2020, published 2024).

Experiments:
Type in all cases: in vivo
Veronica persica (VERPE) = experiment: Post-emergence herbicidal action, greenhouse pot test
Summary of the method: (§1)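 Greenhouse-grown weeds in sandy loam were sprayed post-emergence at the one-leaf stage, 2–3 weeks after sowing. Compounds were formulated as WP or EC in water with 0.5% additive at 600 l/ha, at rates of 20 g/ha or less. Visual rating after about 3 weeks used a scale from 0% (like untreated control) to 100% (plants dead).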

Lolium rigidum (LOLRI) = experiment: as above; conditions: dosage 20 g/ha
Summary of the method: as §1

[1] = tested on: Polygonum convolvulus (POLCO); experiment: as above
Summary of the method: as §1

[2] = tested on: Abutilon theophrasti (ABUTH); experiment: as above; conditions: rated visually after about 3 weeks vs untreated controls, 100% = plants have died
Summary of the method: as §1

[3] = tested on: Pharbitis purpurea (PHBPU); experiment: as above
Summary of the method: as §1

Avena fatua (AVEFA) = experiment: as above; conditions: 20 g/ha, rated visually after about 3 weeks vs untreated controls, 100% = plants have died
Summary of the method: as §1

[4] = tested on: Amaranthus retroflexus (AMARE); experiment: as above; conditions: rated visually after about 3 weeks vs untreated controls, 100% = plants have died
Summary of the method: as §1

Viola tricolor (VIOTR) = experiment: as above
Summary of the method: as §1

[5] = tested on: Matricaria inodora (MATIN); experiment: Post-emergence herbicidal action, greenhouse pot test (also comparative test C)
Summary of the method: (§2)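 Greenhouse pot plants in sandy loam were sprayed post-emergence at the one-leaf stage (2–3 weeks after sowing) with WP or EC formulations plus 0.5% additive at 600 l/ha water. Activity was rated visually after about 3 weeks versus untreated controls (100% = dead, 0% = like control); rates were 20 g/ha or less, and 5 g/ha or less in the comparative test.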

[6] = tested on: Alopecurus myosuroides (ALOMY); experiment: as above; conditions: rated visually after about 3 weeks vs untreated controls, 100% = plants have died
Summary of the method: as §2

[7] = tested on: Echinochloa crus-galli (ECHCG); experiment: as above
Summary of the method: as §2

Setaria viridis (SETVI) = experiment: as above; conditions: for Post-emergence action against SETVI: 20 g/ha
Summary of the method: as §2

[8] = tested on: Triticum aestivum (TRZAS); experiment: Post-emergence crop plant compatibility, greenhouse pot test; conditions: vs untreated controls
Summary of the method: (§3)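 Seeds are sown in sandy loam and grown under controlled greenhouse conditions. At the one-leaf stage (2–3 weeks), foliage is sprayed with the formulated compound in water containing 0.5% additive at 600 l/ha. About 3 weeks later, injury is rated visually in % against untreated plants.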

Zea mays (ZEAMX) = experiment: as above; conditions: 1.25 g/ha, vs untreated controls
Summary of the method: as §3

Oryza sativa (ORYSA) = experiment: Post-emergence crop plant compatibility, greenhouse pot test (also comparative test C); conditions: for Post-emergence action against ORYSA (crop plant compatibility): vs untreated controls
Summary of the method: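 Rice and other crops sprayed post-emergence at one-leaf stage (2–3 weeks after sowing) with WP or EC formulations plus 0.5% additive at 600 l/ha water. Visual rating about 3 weeks later versus untreated controls (100% = dead, 0% = like control); suffixes a–c denote different doses.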

Glycine max (GLXMA) = experiment: Post-emergence crop plant compatibility, greenhouse pot test; conditions: 1.25 g/ha
Summary of the method: as §3

Row | SMILES | Post-emergence action against VERPE (Veronica persica (VERPE); 1.25 g/ha) [%] | Post-emergence action against VERPE (Veronica persica (VERPE); 5 g/ha) [%] | Post-emergence action against VERPE (Veronica persica (VERPE); 20 g/ha) [%] | Post-emergence action against LOLRI in % (Lolium rigidum (LOLRI)) [%] | Post-emergence action against POLCO in % ([1]; dosage 20 g/ha) [%] | Post-emergence action at 1.25 g/ha against ABUTH in % [2] [%] | Post-emergence action at 5 g/ha against ABUTH in % [2] [%] | Post-emergence action at 20 g/ha against ABUTH in % [2] [%] | Post-emergence action against PHBPU in % ([3]; dosage 1.25 g/ha) [%] | Post-emergence action against PHBPU in % ([3]; dosage 5 g/ha) [%] | Post-emergence action against PHBPU in % ([3]; dosage 20 g/ha) [%] | Post-emergence action at 1.25 g/ha against AMARE in % [4] [%] | Post-emergence action at 5 g/ha against AMARE in % [4] [%] | Post-emergence action at 20 g/ha against AMARE in % [4] [%] | Post-emergence action against VIOTR (Viola tricolor (VIOTR); 1.25 g/ha) [%] | Post-emergence action against VIOTR (Viola tricolor (VIOTR); 5 g/ha) [%] | Post-emergence action against VIOTR (Viola tricolor (VIOTR); 20 g/ha) [%] | Post-emergence action against MATIN in % ([5]; dosage 5 g/ha) [%] | Post-emergence action against MATIN in % ([5]; dosage 20 g/ha) [%] | Post-emergence action at 20 g/ha against ALOMY in % [6] [%] | further results
1 | CCOCCOC(=O)COc1ccccc1Oc1cc(-n2c(=O)cc(C(F)(F)F)n(C)c2=O)c(F)cc1Cl [I.7-2] | 80 | 100 | 100 | 80 | 100 | 100 | 100 | 100 | 100 | 100 | 100 | 100 | 100 | 100 | 100 | 100 | 100 | 80 | 100 | 100 | Post-emergence action at 20 g/ha against AVEFA in % (Avena fatua (AVEFA)): 90%; Post-emergence action against MATIN in % ([5]; dosage 1.25 g/ha): 80%; Post-emergence action at 5 g/ha against ALOMY in % [6]: 80%; Post-emergence action against ECHCG in % ([7]; dosage 5 g/ha): 100%; Post-emergence action against ECHCG in % ([7]; dosage 20 g/ha): 100%; Post-emergence action against SETVI (Setaria viridis (SETVI)): 100%; Post-emergence action against SETVI in % (Setaria viridis (SETVI); dosage 1.25 g/ha): 100%; Post-emergence action against SETVI in % (Setaria viridis (SETVI); dosage 5 g/ha): 100%; Post-emergence action against TRZAS (crop plant compatibility) ([8]; 1.25 g/ha): 20%; Post-emergence action against TRZAS (crop plant compatibility) ([8]; 5 g/ha): 20%; Post-emergence action against ZEAMX (crop plant compatibility) (Zea mays (ZEAMX)): 0%; Post-emergence action against ORYSA (crop plant compatibility) (Oryza sativa (ORYSA); 1.25 g/ha): 0%
2 | COCCOC(=O)COc1ccccc1Oc1cc(-n2c(=O)cc(C(F)(F)F)n(C)c2=O)c(F)cc1Br [I.8-1] | 100 | 100 | 100 | 80 | 100 | 100 | 100 | 100 | 100 | 100 | 100 | 100 | 100 | 100 | 100 | 100 | 100 | 100 | 100 | 100 | Post-emergence action against POLCO in % ([1]; dosage 1.25 g/ha): 90%; Post-emergence action against POLCO in % ([1]; dosage 5 g/ha): 100%; Post-emergence action at 20 g/ha against AVEFA in % (Avena fatua (AVEFA)): 80%; Post-emergence action against MATIN in % ([5]; dosage 1.25 g/ha): 100%; Post-emergence action at 5 g/ha against ALOMY in % [6]: 100%; Post-emergence action at 1.25 g/ha against ECHCG in % ([7]; 1.25 g/ha, rated visually after about 3 weeks vs untreated controls, 100% = plants have died): 80%; Post-emergence action against ECHCG in % ([7]; dosage 5 g/ha): 100%; Post-emergence action against ECHCG in % ([7]; dosage 20 g/ha): 100%; Post-emergence action against SETVI (Setaria viridis (SETVI)): 100%; Post-emergence action against SETVI in % (Setaria viridis (SETVI); dosage 1.25 g/ha): 100%; Post-emergence action against SETVI in % (Setaria viridis (SETVI); dosage 5 g/ha): 100%; Post-emergence action against TRZAS (crop plant compatibility) ([8]; 1.25 g/ha): 20%; Post-emergence action against ZEAMX (crop plant compatibility) (Zea mays (ZEAMX)): 20%; Post-emergence action against ORYSA (crop plant compatibility) (Oryza sativa (ORYSA); 1.25 g/ha): 0%; Post-emergence action against ORYSA (crop plant compatibility) (Oryza sativa (ORYSA); 5 g/ha): 20%
3 | CCOCCOC(=O)COc1ccccc1Oc1cc(-n2c(=O)cc(C(F)(F)F)n(C)c2=O)c(F)cc1[N+](=O)[O-] [I.6-2] | 100 | 100 | 100 | 90 | 100 | 100 | 100 | 100 | 100 | 100 | 100 | 100 | 100 | 100 | 100 | 100 | 100 | 90 | 100 | 90 | Post-emergence action against POLCO in % ([1]; dosage 5 g/ha): 100%; Post-emergence action against ECHCG in % ([7]; dosage 5 g/ha): 90%; Post-emergence action against ECHCG in % ([7]; dosage 20 g/ha): 100%; Post-emergence action against SETVI (Setaria viridis (SETVI)): 100%; Post-emergence action against SETVI in % (Setaria viridis (SETVI); dosage 1.25 g/ha): 100%; Post-emergence action against SETVI in % (Setaria viridis (SETVI); dosage 5 g/ha): 100%; Post-emergence action against GLXMA in % (Glycine max (GLXMA)): 20%; Post-emergence action against TRZAS (crop plant compatibility) ([8]; 1.25 g/ha): 20%; Post-emergence action against TRZAS (crop plant compatibility) ([8]; 5 g/ha): 20%; Post-emergence action against ZEAMX (crop plant compatibility) (Zea mays (ZEAMX)): 20%; Post-emergence action against ORYSA (crop plant compatibility) (Oryza sativa (ORYSA); 1.25 g/ha): 0%; Post-emergence action against ORYSA (crop plant compatibility) (Oryza sativa (ORYSA); 5 g/ha): 0%; Post-emergence action against ORYSA in % (Oryza sativa (ORYSA); 20 g/ha, crop plant compatibility): 20%
4 | Cn1c(C(F)(F)F)cc(=O)n(-c2cc(Oc3ccccc3OCC(=O)OCc3ccccn3)c(Br)cc2F)c1=O [I.8-276] | 100 | 100 | 100 | 100 | 100 | 100 | 100 | 100 | 100 | 100 | 100 | 100 | 100 | 100 | 100 | 100 | 100 | 80 | 100 | 100 | Post-emergence action against POLCO in % ([1]; dosage 5 g/ha): 100%; Post-emergence action at 20 g/ha against AVEFA in % (Avena fatua (AVEFA)): 80%; Post-emergence action against MATIN in % ([5]; dosage 1.25 g/ha): 80%; Post-emergence action at 5 g/ha against ALOMY in % [6]: 80%; Post-emergence action against ECHCG in % ([7]; dosage 5 g/ha): 100%; Post-emergence action against ECHCG in % ([7]; dosage 20 g/ha): 100%; Post-emergence action against SETVI (Setaria viridis (SETVI)): 100%; Post-emergence action against SETVI in % (Setaria viridis (SETVI); dosage 1.25 g/ha): 100%; Post-emergence action against SETVI in % (Setaria viridis (SETVI); dosage 5 g/ha): 100%; Post-emergence action against TRZAS (crop plant compatibility) ([8]; 1.25 g/ha): 20%; Post-emergence action against TRZAS (crop plant compatibility) ([8]; 5 g/ha): 20%; Post-emergence action against ZEAMX (crop plant compatibility) (Zea mays (ZEAMX)): 20%; Post-emergence action against ORYSA (crop plant compatibility) (Oryza sativa (ORYSA); 1.25 g/ha): 20%
